The text below walks through data of US11872296B2, “Preservation compositions” (Conopco, Inc., priority 2018, dated 2024).

The test system of assay [1] is Gram negative non-fermenting bacteria: Pseudomonas aeruginosa, Pseudomonas putida & Burkholderia cepacia. Briefly: Liquid broth checkerboard assay (MIC, ΣFIC synergy), Pool 1. The conditions noted are these: tryptic soy broth, 30° C., 24 hours, ΣFIC<1 synergistic. It counts as cell-based. From the text:
(§1) The differing behaviours of inhibitory antimicrobials in isolation and mixtures have been widely explored using the concept of the Fractional Concentration and Fractional Inhibitory Concentration (FIC). See for instance JRW Lambert and R Lambert, J. Appl. Microbiol 95, 734 (2003); T. Jadavji, CG Prober and R Cheung, Antimicrobial Agents and Chemotherapy 26, 91 (1984), and WO 2004/006876. These parameters can be defined as follows:
(§2) FC (component a)=Concentration of component a tested in the mixture/MIC (component a tested as a single active)
(§3) FIC (component a)=MIC (component a tested in the mixture)/MIC (component a tested as a single active)
(§4) The interactions between antimicrobials can be additive, synergistic or possibly antagonistic depending on whether the efficacy of the combination is equivalent to, greater than or less than that obtained for the same total concentration of the individual components when tested alone.
(§5) These relationships can be expressed mathematically by summing the fractional MIC values for all the components present in the mixture to give the “fractional inhibitory index”: ΣFIC=FIC(component 1)+FIC(component 2) Such that: ΣFIC≥1 corresponds to additive or antagonistic activity ΣFIC<1 corresponds to synergistic activity
(§6) Liquid broth assays (MIC and checkerboard) were conducted to identify the minimum concentration(s) of individual and binary combinations of preservation chemicals. A modified methodology to ISO 20776-1:2006 was utilised for the screening as follows. Stock solutions of preservation chemicals and tryptic soy broth were inoculated with 1-5×10^6 microorganisms and incubated at 30° C. for 24 hours, after which optical densities at OD600nm were measured. […] Preservation chemicals were screened at a concentration range of 0.0156-2%.

Assay [2] has as its system Gram negative fermenting bacteria: Enterobacter gergoviae & Klebsiella species. Briefly: Liquid broth checkerboard assay (MIC, ΣFIC synergy), Pool 2. The class given is cell-based. The conditions noted are these: tryptic soy broth, 30° C., 24 hours, ΣFIC<1 synergistic.
Text: as §1, §2, §3, §4, §5, §6

Setting [3] is: binary combination with Citric Acid.
The mark [4] stands for this setting: binary combination with Itaconic acid.

As for `CCCCc1ccc(O)cc1` [4-n-butyl phenol], the ΣFIC synergy score in assay [1] (setting [3]) was determined as 0.50; in assay [1] (setting [4]), 0.44; in assay [2] (setting [3]) it was 0.59; in assay [2] (setting [4]), 0.50.

On to `CCOc1cc(C=O)ccc1O` [Ethylvanillin], for which the ΣFIC synergy score worked out at 0.63 in assay [1] (setting [3]), 0.56 in assay [1] (setting [4]), 0.69 in assay [2] (setting [3]) and 0.63 in assay [2] (setting [4]).

For the compound `C=CCc1ccc(O)c(OC)c1` [Eugenol], the ΣFIC synergy score in assay [1] (setting [3]) is on record as 0.75; in assay [1] (setting [4]) it was 0.38; in assay [2] (setting [3]) it was 0.53; in assay [2] (setting [4]), 0.38.
